Measurements as given in patent US20240335439A1, “USE OF AND METHOD FOR TELAPREVIR IN PREPARATION OF DRUG FOR TREATING AN ISCHEMIA/REPERFUSION INJURY AND CYTOPROTECTIVE DRUG” (THE THIRD XIANGYA HOSPITAL OF CENTRAL SOUTH UNIVERSITY, priority 2021, published 2024).

What was measured:
[1] = tested on: ischemic stroke mouse models; assay: Ischemic stroke mouse model (MCAO 1 h, reperfusion 24 h); assay type: in vivo, C57BL/6J mice; details: telaprevir 90 mg/kg intramuscular after 1 hour of ischemia and 1 hour of reperfusion
Protocol: Experimental animals: 7-week-old male C57BL/6J mice. The experimental animals were raised for one week in an environment with a temperature of 25° C., a relative humidity of 60%, free drinking water, and timed and quantified feeding, and then administered according to the requirements of each experimental group.
Method for building an ischemic stroke mouse model: A cerebral ischemia/reperfusion mouse model was prepared by a middle cerebral artery occlusion (MCAO) method. The steps were as follows: after an 8-week-old male C57BL/6J mouse was anesthetized by intraperitoneal injection with 0.3% pentobarbital sodium (20 mL/kg), a left common carotid artery (CCA) was isolated, and a left external carotid artery (ECA) and internal carotid artery (ICA) were isolated upwards; the ECA and ICA were temporarily occluded with ophthalmic forceps, and a proximal end of the CCA was ligated; a knotted spare silk suture was placed at a distal end of the CCA, a small incision was cut below the suture, an occlusion suture was inserted into the internal carotid artery, arterial clips on the ECA and ICA were released, and the occlusion suture was delivered into the cranium along the ICA; and when encountering resistance, the silk suture was tightened, the occlusion suture was secured. […]
Neurological function scores of mice were detected and cerebral infarct volumes were measured.

SH-SY5Y nerve cells = assay: Hypoxia/reoxygenation injury of SH-SY5Y nerve cells, MTS viability and LDH release; assay type: cell-based; details: hypoxia 8 h / reoxygenation 24 h, telaprevir 1, 5, 10 μM, vs Hypoxia
Protocol: The measurement followed the operating instructions of a commercially available lactate dehydrogenase kit (Shanghai Beyotime Biotechnology Co., Ltd., China). Groups were designed according to experimental requirements, and a background blank control group (without cells) and a maximum enzyme release group were additionally set. An LDH release reagent in a volume of 1/10 of the original medium was added to the maximum enzyme activity well group of the sample, and the culture continued for 1 hour. 120 μL of supernatant was pipetted from each well and added to a new 96-well plate, and 60 μL of LDH detection working solution was added to each well, followed by uniform mixing and incubation at room temperature for 30 minutes (in dark). The absorbance of the sample was measured at 490 nm. Calculation: LDH release rate of cells (%)=(absorbance of the drug treatment group-absorbance of the control group)/(absorbance of the maximum enzyme release group-absorbance of the control group)×100%. When the absorbance value of each group was calculated, the absorbance value of the background blank control group was first subtracted.
SH-SY5Y nerve cells were purchased from the Xiangya Cell Bank of Central South University. […]
Cell viability was detected by MTS and cell injury was detected by an LDH release rate. […]

SMILES: CCC[C@H](NC(=O)[C@@H]1[C@H]2CCC[C@H]2CN1C(=O)[C@@H](NC(=O)[C@@H](NC(=O)c1cnccn1)C1CCCCC1)C(C)(C)C)C(=O)C(=O)NC1CC1 [telaprevir]
- neurological impairment symptoms (Longa neurological function score) of mice ([1]; ##P<0.01 vs I/R, FIG. 3B): significantly improve
- cerebral infarct volume of mice (TTC staining) ([1]; vs I/R, FIG. 3A): significantly decreased
- cell viability (MTS) of hypoxia/reoxygenation treated SH-SY5Y cells (SH-SY5Y nerve cells; FIG. 5A): significantly inhibit a decrease
- LDH release rate of hypoxia/reoxygenation treated SH-SY5Y cells (SH-SY5Y nerve cells; FIG. 5B): significantly inhibit
